Assay results taken from patent US9198419B2, “Use of pro-fungicides of UK-2A for control of black sigatoka” (Dow AgroSciences LLC, priority 2012, dated 2015).

System: Black Sigatoka on Bananas
Experiment: Assessment of disease in field plots: Black Sigatoka on banana plants, natural inoculation
Format: in vivo, Mycosphaerella fijiensis
Conditions: for Disease Severity (AUDPC): 61 Day After Application, Area Under Disease Progression Curve, banana field plots; for Total Number of Functional Leaves: bananas
Protocol: Aliquots of a 10% SC formulation of Compound I were diluted into water and mixed with Spraytex CT mineral oil (7 L/Ha) to achieve active ingredient application rates of 50, 100, 150, 200, 300 & 400 g a.i./Ha. These treatments were delivered to banana plants in field plots at an application volume of 23 L/Ha, using a Solo back-pack pump sprayer fitted with a Micronair AU8000 atomizer. A total of five applications were made at 10 day intervals. Experimental design was based on a randomized complete block, and 4 replications. Disease symptoms resulted from natural inoculation and epidemic development. Total experimental plot size was 96 m^2. Efficacy was determined by both percent visual infection and the number of functional leaves.

## COc1ccnc(C(=O)N[C@H]2COC(=O)[C@H](Cc3ccccc3)[C@@H](OC(=O)C(C)C)[C@H](C)OC2=O)c1OCOC(=O)C(C)C [Compound I]
Compound I 50 ppm
  Disease Severity (AUDPC): 29
Compound I 100 ppm
  Disease Severity (AUDPC): 34
Compound I 150 ppm
  Disease Severity (AUDPC): 29
Compound I 200 ppm
  Disease Severity (AUDPC): 28
Compound I 300 ppm
  Disease Severity (AUDPC): 35
Rate 50 g ai/ha, Week 10
  Total Number of Functional Leaves: 12.8
Rate 50 g ai/ha, Week 13
  Total Number of Functional Leaves: 13.0
Rate 50 g ai/ha, Week 15
  Total Number of Functional Leaves: 14.7
Rate 100 g ai/ha, Week 10
  Total Number of Functional Leaves: 9.3
Rate 100 g ai/ha, Week 13
  Total Number of Functional Leaves: 12.7
Rate 100 g ai/ha, Week 15
  Total Number of Functional Leaves: 14.1
Rate 200 g ai/ha, Week 10
  Total Number of Functional Leaves: 8.6
Rate 200 g ai/ha, Week 13
  Total Number of Functional Leaves: 12.3
Rate 200 g ai/ha, Week 15
  Total Number of Functional Leaves: 14.0
Rate 400 g ai/ha, Week 10
  Total Number of Functional Leaves: 8.7
Rate 400 g ai/ha, Week 13
  Total Number of Functional Leaves: 12.7
Rate 400 g ai/ha, Week 15
  Total Number of Functional Leaves: 14.0
